Source: patent publication US6914045B2, “Glycopeptide antibiotics” (Wyeth Holdings Corporation, priority 2001, dated 2005)
Values after ≈ are worked out from the molar mass of the structure shown.

What was measured:
[1] = test system: Enterococcus sp.; assay: in vitro antibacterial evaluation, MIC by broth dilution; type: cell-based; settings: broth dilution, 18 hours at 35° C.; for MIC Enterococcus faecalis (ATCC 29212): strain ATCC 29212; for MIC Enterococcus faecalis (GC 2242): strain GC 2242; for MIC Enterococcus faecium (GC 2243): strain GC 2243; for MIC Enterococcus faecalis (GC 2691): strain GC 2691; for MIC Enterococcus faecalis (GC 3059): strain GC 3059; for MIC Enterococcus faecalis (GC 4552): strain GC 4552; for MIC Enterococcus faecalis (GC 4553): strain GC 4553; for MIC Enterococcus faecalis (GC 4554): strain GC 4554; for MIC Enterococcus faecium (GC 4556): strain GC 4556; for MIC Enterococcus faecium (GC 4557): strain GC 4557; for MIC Enterococcus avium (GC 4558): strain GC 4558; for MIC Enterococcus faecalis (GC 6189): strain GC 6189
In short: (§1)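 Step 1: dilute antibiotic across 64-0.06 μg/mL in Muller-Hinton II […]. Step 2: inoculate at 5×10^5 CFU/mL.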

[2] = test system: Escherichia coli; assay: as above; type: cell-based
In short: as §1

[3] = test system: Staphylococcus sp.; assay: as above; type: cell-based; settings: broth dilution, 18 hours at 35° C.; for MIC Staphylococcus aureus (GC 1131): strain GC 1131
In short: as §1

[4] = test system: Streptococcus sp.; assay: as above; type: cell-based; settings: broth dilution, 18 hours at 35° C.; for MIC Streptococcus pneumoniae (ATCC 6301): strain ATCC 6301; for MIC Streptococcus pneumoniae (GC 1894): strain GC 1894; for MIC Streptococcus pyogenes (GC 4563): strain GC 4563; for MIC Streptococcus agalactiae (GC 4564): strain GC 4564; for MIC Streptococcus pneumoniae (GC 4565): strain GC 4565
In short: as §1

[5] = test system: Staphylococcus aureus-SMITH (GC 4543); assay: acute lethal infection in mice; type: in vivo; settings: acute lethal infection, female CD-1 mice, intraperitoneal challenge, intravenous 30 min. after infection, 7 day survival
In short: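 Survival at 7 days, pooled from three independent tests, yields ED50 values. Treatment is intravenous, 30 min after ip infection of female CD-1 mice, using an inoculum lethal to untreated controls within 24-48 hr.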

Cc1ccc(Oc2ccc(C3OCC4OC(OC5C(CO)OC(Oc6ccc(CC7NC(=O)C(C(C)c8ccccc8)NC(=O)CNC(=O)C(CO)NC(=O)C(C(O)C8CNC(=N)N8C8OC(CO)C(O)C(O)C8O)NC(=O)C(C(O)C8CNC(=N)N8)NC7=O)cc6)C(O)C5O)C(O)C(O)C4O3)cc2)cc1 (stereo not drawn) [Example 174, Cyclo[glycyl-β-methylphenylalanyl-O-[4-O-[4,6-O-[4-(4-methylphenoxy)benzylidene]hexopyranosyl]hexopyranosyl]tyrosyl-3-(2-iminoimidazolidin-4-yl)seryl-3-(3-hexopyranosyl-2-iminoimidazolidin-4-yl)serylseryl]]
MIC Enterococcus faecalis (ATCC 29212) ([1]; inoculum 5×10^5 CFU/mL): 2 µg/mL (≈ 1.34 µM)
MIC Enterococcus faecalis (GC 2242) ([1]; inoculum 5×10^5 CFU/mL): 2 µg/mL (≈ 1.34 µM)
MIC Enterococcus faecium (GC 2243) ([1]; inoculum 5×10^5 CFU/mL): 1 µg/mL (≈ 0.671 µM)
MIC Enterococcus faecalis (GC 2691) ([1]; inoculum 5×10^5 CFU/mL): 2 µg/mL (≈ 1.34 µM)
MIC Enterococcus faecalis (GC 3059) ([1]; inoculum 5×10^5 CFU/mL): 2 µg/mL (≈ 1.34 µM)
MIC Enterococcus faecalis (GC 4552) ([1]; inoculum 5×10^5 CFU/mL): 1 µg/mL (≈ 0.671 µM)
MIC Enterococcus faecalis (GC 4553) ([1]; inoculum 5×10^5 CFU/mL): 1 µg/mL (≈ 0.671 µM)
MIC Enterococcus faecalis (GC 4554) ([1]; inoculum 5×10^5 CFU/mL): 1 µg/mL (≈ 0.671 µM)
MIC Enterococcus faecium (GC 4556) ([1]; inoculum 5×10^5 CFU/mL): 1 µg/mL (≈ 0.671 µM)
MIC Enterococcus faecium (GC 4557) ([1]; inoculum 5×10^5 CFU/mL): 2 µg/mL (≈ 1.34 µM)
MIC Enterococcus avium (GC 4558) ([1]; inoculum 5×10^5 CFU/mL): 2 µg/mL (≈ 1.34 µM)
MIC Enterococcus faecalis (GC 6189) ([1]; inoculum 5×10^5 CFU/mL): 2 µg/mL (≈ 1.34 µM)
MIC Enterococcus faecalis (ATCC 29212) [1]: 2 µg/mL (≈ 1.34 µM)
MIC Enterococcus faecalis (GC 2242) [1]: 2 µg/mL (≈ 1.34 µM)
MIC Enterococcus faecium (GC 2243) [1]: 1 µg/mL (≈ 0.671 µM)
MIC Enterococcus faecalis (GC 2691) [1]: 2 µg/mL (≈ 1.34 µM)
MIC Enterococcus faecalis (GC 3059) [1]: 2 µg/mL (≈ 1.34 µM)
MIC Enterococcus faecalis (GC 4552) [1]: 1 µg/mL (≈ 0.671 µM)
MIC Enterococcus faecalis (GC 4553) [1]: 1 µg/mL (≈ 0.671 µM)
MIC Enterococcus faecalis (GC 4554) [1]: 1 µg/mL (≈ 0.671 µM)
MIC Enterococcus faecium (GC 4556) [1]: 1 µg/mL (≈ 0.671 µM)
MIC Enterococcus faecium (GC 4557) [1]: 2 µg/mL (≈ 1.34 µM)
MIC Enterococcus avium (GC 4558) [1]: 2 µg/mL (≈ 1.34 µM)
MIC Enterococcus faecalis (GC 6189) [1]: 2 µg/mL (≈ 1.34 µM)
MIC Escherichia coli (ATCC 25922) ([2]; strain ATCC 25922, 18 hours at 35° C.): >64 µg/mL
MIC Escherichia coli (GC 4559) ([2]; strain GC 4559, 18 hours at 35° C.): >64 µg/mL
MIC Escherichia coli (GC 4560) ([2]; strain GC 4560, 18 hours at 35° C.): 4 µg/mL (≈ 2.69 µM)
MIC Staphylococcus aureus (GC 1131) ([3]; inoculum 5×10^5 CFU/mL): 1 µg/mL (≈ 0.671 µM)
MIC Staphylococcus aureus (ATCC 29213) ([3]; strain ATCC 29213): 2 µg/mL (≈ 1.34 µM)
MIC Staphylococcus aureus (GC 1131) [3]: 1 µg/mL (≈ 0.671 µM)
MIC Staphylococcus aureus (GC 3051) ([3]; strain GC 3051): 2 µg/mL (≈ 1.34 µM)
MIC Staphylococcus aureus (GC 3053) ([3]; strain GC 3053): 2 µg/mL (≈ 1.34 µM)
MIC Staphylococcus aureus (GC 4541) ([3]; strain GC 4541): 2 µg/mL (≈ 1.34 µM)
MIC Staphylococcus aureus (GC 4542) ([3]; strain GC 4542): 2 µg/mL (≈ 1.34 µM)
MIC Staphylococcus aureus (GC 4544) ([3]; strain GC 4544): 1 µg/mL (≈ 0.671 µM)
MIC Staphylococcus aureus (GC 4545) ([3]; strain GC 4545): 1 µg/mL (≈ 0.671 µM)
MIC Staphylococcus aureus-SMITH (GC 4543) ([3]; strain GC 4543): 1 µg/mL (≈ 0.671 µM)
MIC Staphylococcus haemolyticus (GC 4546) ([3]; strain GC 4546): 2 µg/mL (≈ 1.34 µM)
MIC Coagulase Negative Staphylococcus (GC 4547) ([3]; strain GC 4547): 2 µg/mL (≈ 1.34 µM)
MIC Coagulase Negative Staphylococcus (GC 4548) ([3]; strain GC 4548): 0.5 µg/mL (≈ 0.336 µM)
MIC Coagulase Negative Staphylococcus (GC 4549) ([3]; strain GC 4549): 1 µg/mL (≈ 0.671 µM)
MIC Coagulase Negative Staphylococcus (GC 4551) ([3]; strain GC 4551): 1 µg/mL (≈ 0.671 µM)
MIC Coagulase Negative Staphylococcus (GC 6257) ([3]; strain GC 6257): 0.5 µg/mL (≈ 0.336 µM)
MIC Streptococcus pneumoniae (ATCC 6301) ([4]; inoculum 5×10^5 CFU/mL): <0.06 µg/mL
MIC Streptococcus pneumoniae (GC 1894) ([4]; inoculum 5×10^5 CFU/mL): <0.06 µg/mL
MIC Streptococcus pyogenes (GC 4563) ([4]; inoculum 5×10^5 CFU/mL): <0.06 µg/mL
MIC Streptococcus agalactiae (GC 4564) ([4]; inoculum 5×10^5 CFU/mL): <0.06 µg/mL
MIC Streptococcus pneumoniae (GC 4565) ([4]; inoculum 5×10^5 CFU/mL): <0.06 µg/mL
MIC Streptococcus pneumoniae (ATCC 6301) [4]: <0.06 µg/mL
MIC Streptococcus pneumoniae (GC 1894) [4]: <0.06 µg/mL
MIC Streptococcus pyogenes (GC 4563) [4]: <0.06 µg/mL
MIC Streptococcus agalactiae (GC 4564) [4]: <0.06 µg/mL
MIC Streptococcus pneumoniae (GC 4565) [4]: <0.06 µg/mL
median effective dose (ED50), Staphylococcus aureus-SMITH (GC 4543) [5]: 0.08 mg/kg
